Patent US8129327B2, “Packaging for high moisture bar soap” (The Procter & Gamble Company, priority 2006, dated 2012)

Columns and labels:
penicillium chrysogenum = experiment: inhibition of mold growth on paperboard package containing high moisture bar soap; conditions: fungicide-treated paperboard package containing high moisture bar soap
Description: (§1) The present invention further relates to a method of inhibiting the growth of mold, especially certain species of mold such as aspergillus sydowii and/or penicillium chrysogenum, that can grow on a paperboard package containing a high moisture bar soap composition.
(§2) Such a fungicide material is commercially available from Intace S.A. under the tradename INTACE B-6773.

aspergillus sydowii = experiment: as above; conditions: fungicide-treated paperboard package containing high moisture bar soap
Description: as §1, §2

In the case of `COC(=O)Nc1nc2ccccc2[nH]1` [carbendazim], the “inhibition of the growth of mold on paperboard packaging” value (penicillium chrysogenum) is reported as “typically resistant” and the “inhibition of the growth of mold on paperboard packaging” value (aspergillus sydowii) is reported as “typically resistant”.
